PubChem BioAssay AID330 (DTP/NCI, 2004)
“And” between values parts separate entries of the source, which are not always exact repeats. Equal values may be shown once. Toxic doses and inconclusive results are not listed.

Tested on: P388 leukemia ip, CD2F1 mice, survival T/C
Assay: NCI In Vivo Anticancer Drug Screen. Data for tumor model P388 Leukemia (intraperitoneal) in CD2F1 (CDF1) mice
Settings: endpoint: median survival time, higher = longer survival
Method in brief: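 Mice carrying the transplanted tumor received test compound or vehicle. Survival was recorded in each group, and the value is the treated-group measurement divided by that of the vehicle-treated control group.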

[1] = dose: 25.0 mg/kg/injection, schedule: Q01DX005 (ip), vehicle: Klucel (hydroxypropylcellulose) (HPC)
[2] = dose: 50.0 mg/kg/injection, schedule: Q01DX005 (ip), vehicle: Klucel (hydroxypropylcellulose) (HPC)
[3] = dose: 50.0 mg/kg/injection, schedule: Q01DX005 (ip), vehicle: saline with Tween-80
[4] = dose: 100.0 mg/kg/injection, schedule: Q01DX005 (ip), vehicle: saline with Tween-80
[5] = dose: 200.0 mg/kg/injection, schedule: Q01DX005 (ip), vehicle: saline with Tween-80
[6] = dose: 50.0 mg/kg/injection, schedule: Q01DX009 (ip), vehicle: saline
[7] = dose: 100.0 mg/kg/injection, schedule: Q01DX009 (ip), vehicle: saline
[8] = dose: 50.0 mg/kg/injection, schedule: Q01DX009 (ip), vehicle: saline with Tween-80
[9] = dose: 100.0 mg/kg/injection, schedule: Q01DX009 (ip), vehicle: saline with Tween-80
[10] = dose: 200.0 mg/kg/injection, schedule: Q01DX009 (ip), vehicle: saline with Tween-80
[11] = dose: 100.0 mg/kg/injection, schedule: Q01DX005 (ip), vehicle: Klucel (hydroxypropylcellulose) (HPC)

COc1ccc(Cc2cc(N=NC(N)=O)c(C)cc2O)cc1
T/C (dose: 12.5 mg/kg/injection, schedule: Q01DX005 (ip), vehicle: Klucel (hydroxypropylcellulose) (HPC)): 106 % of control
T/C [1]: 94 % of control
T/C [2]: 97 % of control

COc1ccc(CCNC2=CC(=O)CCC2)cc1OC
T/C [3]: 101 % of control
T/C [4]: 99 % of control
T/C [5]: 101 % of control

CCOC(=O)c1cnc2cc3c(cc2c1Nc1ccc2c(c1)OCO2)OCO3
T/C (dose: 60.0 mg/kg/injection, schedule: Q01DX005 (ip), vehicle: Klucel + Tween-80): 108 % of control
T/C (dose: 120.0 mg/kg/injection, schedule: Q01DX005 (ip), vehicle: Klucel + Tween-80): 109 % of control

CCOC(=O)/C(N)=N/N=Nc1ccc([N+](=O)[O-])cc1
T/C [6]: 103 % of control
T/C [7]: 103 % of control

C=C(C)C1C/C=C(\C)CC/C=C(\C)CC/C=C(\C)CC1 (stereo not drawn)
T/C (dose: 18.75 mg/kg/injection, schedule: Q01DX009 (ip), vehicle: saline + Tween-80 + alcohol): 93 % of control
T/C (dose: 37.5 mg/kg/injection, schedule: Q01DX009 (ip), vehicle: saline + Tween-80 + alcohol): 101 % of control
T/C (dose: 75.0 mg/kg/injection, schedule: Q01DX009 (ip), vehicle: saline + Tween-80 + alcohol): 102 % of control
T/C (dose: 150.0 mg/kg/injection, schedule: Q01DX009 (ip), vehicle: saline + Tween-80 + alcohol): 99 % of control

O=C(C=C(C(F)(F)F)C(F)(F)F)c1ccccc1Cl
T/C (dose: 6.25 mg/kg/injection, schedule: Q01DX009 (ip), vehicle: saline with Tween-80): 110 % of control
T/C (dose: 12.5 mg/kg/injection, schedule: Q01DX009 (ip), vehicle: saline with Tween-80): 150 % of control
T/C (dose: 12.5 mg/kg/injection, schedule: Q04DX003 (ip), vehicle: saline with Tween-80): 113 % of control
T/C (dose: 25.0 mg/kg/injection, schedule: Q04DX003 (ip), vehicle: saline with Tween-80): 118 % of control

COC(=O)/C=c1\sc2n(c1=O)CCCCN=2
T/C (dose: 60.0 mg/kg/injection, schedule: Q01DX005 (ip), vehicle: Klucel (hydroxypropylcellulose) (HPC)): 86 % of control
T/C (dose: 120.0 mg/kg/injection, schedule: Q01DX005 (ip), vehicle: Klucel (hydroxypropylcellulose) (HPC)): 93 % of control
T/C (dose: 240.0 mg/kg/injection, schedule: Q01DX005 (ip), vehicle: Klucel (hydroxypropylcellulose) (HPC)): 100 % of control

CC(=O)Nc1nc(=O)c2c(n1C(C)=O)N(C(C)=O)C(=O)C2
T/C (dose: 100.0 mg/kg/injection, schedule: Q04DX002 (ip), vehicle: saline with Tween-80): 103 % of control
T/C (dose: 200.0 mg/kg/injection, schedule: Q04DX002 (ip), vehicle: saline with Tween-80): 103 % of control
T/C (dose: 400.0 mg/kg/injection, schedule: Q04DX002 (ip), vehicle: saline with Tween-80): 100 % of control

CN1C(=O)CC(Sc2ccccc2)c2ccccc21 (stereo not drawn)
T/C (dose: 25.0 mg/kg/injection, schedule: Q01DX009 (ip), vehicle: saline with Tween-80): 96 % of control
T/C [8]: 97 % of control
T/C [9]: 93 % of control

CC(C)(C)c1cc2c(c(C(C)(C)C)c1)OP(F)(c1ccccc1)(c1ccccc1)N2
T/C [8]: 89 % of control
T/C [9]: 95 % of control
T/C [10]: 98 % of control

Cc1ccc2nc(CN(CCN(Cc3nc4ccc(C)cc4[nH]3)Cc3nc4ccc(C)cc4[nH]3)Cc3nc4ccc(C)cc4[nH]3)[nH]c2c1
T/C (dose: 0.38 mg/kg/injection, schedule: Q01DX005 (ip), vehicle: saline with Tween-80): 94 % of control
T/C (dose: 0.75 mg/kg/injection, schedule: Q01DX005 (ip), vehicle: saline with Tween-80): 97 % of control
T/C (dose: 1.5 mg/kg/injection, schedule: Q01DX005 (ip), vehicle: saline with Tween-80): 109 % of control
T/C (dose: 3.0 mg/kg/injection, schedule: Q01DX005 (ip), vehicle: saline with Tween-80): 106 % of control
T/C (dose: 3.12 mg/kg/injection, schedule: Q01DX005 (ip), vehicle: saline with Tween-80): 113 % of control

CS(C)=Nc1ccc([N+](=O)[O-])cc1
T/C (dose: 100.0 mg/kg/injection, schedule: Q01DX001 (ip), vehicle: Klucel (hydroxypropylcellulose) (HPC)): 109 % of control
T/C (dose: 200.0 mg/kg/injection, schedule: Q01DX001 (ip), vehicle: Klucel (hydroxypropylcellulose) (HPC)): 100 % of control

O=CNc1nc[nH]c1-c1noc(=O)[nH]1
T/C (dose: 25.0 mg/kg/injection, schedule: Q04DX002 (ip), vehicle: saline): 104 % of control
T/C (dose: 50.0 mg/kg/injection, schedule: Q04DX002 (ip), vehicle: saline): 104 % of control
T/C (dose: 100.0 mg/kg/injection, schedule: Q04DX002 (ip), vehicle: saline): 104 % of control and 110 % of control

Cc1oc2ccccc2c(=O)c1CN1CCN(c2ccccc2)CC1
T/C (dose: 60.0 mg/kg/injection, schedule: Q01DX005 (ip), vehicle: saline): 103 % of control
T/C (dose: 120.0 mg/kg/injection, schedule: Q01DX005 (ip), vehicle: saline): 101 % of control
T/C (dose: 240.0 mg/kg/injection, schedule: Q01DX005 (ip), vehicle: saline): 92 % of control

O=c1oc2cc(O)ccc2c2oc3cc(O)ccc3c12
T/C (dose: 50.0 mg/kg/injection, schedule: Q04DX003 (ip), vehicle: saline with Tween-80): 100 % of control
T/C (dose: 100.0 mg/kg/injection, schedule: Q04DX003 (ip), vehicle: saline with Tween-80): 94 % of control
T/C (dose: 200.0 mg/kg/injection, schedule: Q04DX003 (ip), vehicle: saline with Tween-80): 93 % of control
T/C (dose: 400.0 mg/kg/injection, schedule: Q04DX003 (ip), vehicle: saline with Tween-80): 93 % of control

Cc1cc(O)c(C(c2ccc3c(c2)OCO3)c2c(O)cc(C)[nH]c2=O)c(=O)[nH]1
T/C [8]: 92 % of control
T/C [9]: 98 % of control
T/C [10]: 95 % of control

OCCCCCCCCCCCC1C=CCC1 (stereo not drawn)
T/C (dose: 100.0 mg/kg/injection, schedule: Q01DX001 (ip), vehicle: saline): 101 % of control
T/C (dose: 200.0 mg/kg/injection, schedule: Q01DX001 (ip), vehicle: saline): 101 % of control
T/C (dose: 400.0 mg/kg/injection, schedule: Q01DX001 (ip), vehicle: saline): 107 % of control

Cc1ccc2nc3cc(N)ccc3c(-c3ccc(N)cc3)c2c1
T/C [2]: 97 % of control
T/C [11]: 102 % of control
T/C (dose: 200.0 mg/kg/injection, schedule: Q01DX005 (ip), vehicle: Klucel (hydroxypropylcellulose) (HPC)): 97 % of control

COC1=CC(=O)C(OC)=C(c2c[nH]c3ccccc23)C1=O
T/C (dose: 60.0 mg/kg/injection, schedule: Q01DX005 (ip), vehicle: saline with Tween-80): 95 % of control
T/C (dose: 120.0 mg/kg/injection, schedule: Q01DX005 (ip), vehicle: saline with Tween-80): 87 % of control
T/C (dose: 240.0 mg/kg/injection, schedule: Q01DX005 (ip), vehicle: saline with Tween-80): 97 % of control

CC1=NN(c2ccc(Cl)cc2)C(=O)/C1=C\c1c(C)[nH]n(-c2ccc(Cl)cc2)c1=O
T/C [3]: 110 % of control
T/C [4]: 101 % of control
T/C [5]: 96 % of control

O=C1CSC(=S)N1c1ccc(Cl)c([N+](=O)[O-])c1
T/C (dose: 25.0 mg/kg/injection, schedule: Q01DX009 (ip), vehicle: saline): 101 % of control
T/C [6]: 104 % of control and 111 % of control and 92 % of control
T/C [7]: 99 % of control and 100 % of control
T/C (dose: 100.0 mg/kg/injection, schedule: Q01DX009 (ip), vehicle: suspension in saline): 117 % of control
T/C (dose: 200.0 mg/kg/injection, schedule: Q01DX009 (ip), vehicle: saline): 102 % of control and 108 % of control
T/C (dose: 200.0 mg/kg/injection, schedule: Q01DX009 (ip), vehicle: suspension in saline): 86 % of control

CC1CCC2(C(=O)O)CCC3(C)C(=CCC4C5(C)CC(O)C(O)C(C)(CO)C5C(O)CC43C)C2C1C (stereo not drawn)
T/C [1]: 90 % of control
T/C [2]: 92 % of control
T/C [11]: 95 % of control

S=P1(Sc2ccccc2)Oc2ccccc2O1
T/C (dose: 12.5 mg/kg/injection, schedule: Q01DX001 (ip), vehicle: saline with Tween-80): 99 % of control
T/C (dose: 25.0 mg/kg/injection, schedule: Q01DX001 (ip), vehicle: saline with Tween-80): 100 % of control
T/C (dose: 50.0 mg/kg/injection, schedule: Q01DX001 (ip), vehicle: saline with Tween-80): 106 % of control
T/C (dose: 100.0 mg/kg/injection, schedule: Q01DX001 (ip), vehicle: saline with Tween-80): 90 % of control

Cc1occ(Br)c(=O)c1O
T/C (dose: 50.0 mg/kg/injection, schedule: Q01DX005 (ip), vehicle: saline): 104 % of control
T/C (dose: 100.0 mg/kg/injection, schedule: Q01DX005 (ip), vehicle: saline): 103 % of control
T/C (dose: 200.0 mg/kg/injection, schedule: Q01DX005 (ip), vehicle: saline): 103 % of control
